Our source for the TGI values is PubChem BioAssay (NCI).

Common to all, as to assay: NCI-60 cell line screen, 48 h
Test [1] has as its system SF-295 CNS.
Test [2] concerns HL-60(TB) leukemia.
For test [3], the system named is HCT-116 colon.
Test [4] concerns HCC-2998 colon.
Test [5] has as its system NCI-H460 lung.
Test [6] relates to HT29 colon.
The subject of test [7] is UO-31 renal.
Test [8] relates to NCI-H226 lung.
Test [9] deals with BT-549 breast.
For test [10], the system named is CAKI-1 renal.
For test [11], the system named is CCRF-CEM leukemia.
The subject of test [12] is 786-0 renal.
Test [13] has as its system SF-539 CNS.
Test [14] deals with OVCAR-8 ovarian.

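Dose response: 5 concentrations. Exposure: 48 h. Format: 96-well plates. Endpoint: linear interpolation; highest concentration if not reached. TGI: concentration producing complete growth inhibition.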 Where a SMILES comes first, the peptide text is derived from it. [ ]: non-standard residue; d: D form. The star is where a group is joined. Phe(4-NO2) = N[CH](Cc1ccc([N+](=O)[O-])cc1)C(=O)O; Cbz = O=C(OCc1ccccc1)*

Turning to `CC1CCC2C(C(=O)O[C@H]3C4C=CO[C@@H](OC5OC(CO)C(O)C(O)C5O)C4[C@@]4(CO)O[C@@H]34)=CO[C@@H](OC3OC(CO)C(O)C(O)C3O)C12` (stereo partly specified), the TGI in test [1], in test [2], in test [3], in test [4], in [5] and in test [6] was greater than 10 µM each time. The TGI in [7], in test [8], in [9], in test [10], in test [11] and in test [12] was greater than 10 µM throughout. The TGI in test [13] and in test [14] was greater than 10 µM in each case.

As for `CC1=NN(c2ccccc2Cl)C2(C1)C(Cl)C(=O)N2c1nc2ccccc2s1` (stereo unspecified), the TGI in test [1] is greater than 100 µM; in test [2], 60.6 µM; in test [3], greater than 100 µM; in test [4], greater than 100 µM; in test [5], greater than 100 µM; in [6], greater than 100 µM. For the same molecule, the TGI in [7], in test [8], in [9], in test [10], in test [12] and in test [14] was greater than 100 µM in each case.

As for `COC(=O)C1=CCC[C@H]2[C@@]1(COC(C)=O)CC[C@@H](C)[C@]2(C)CC(=O)c1ccoc1`, the TGI in test [1] is greater than 50 µM; in [2] it was 24.5 µM; in test [3], 30.4 µM; in test [4] it was 37.5 µM; in [5] it was greater than 50 µM; in test [6], greater than 50 µM. The TGI in test [7] was greater than 50 µM; in test [8], greater than 50 µM; in test [9], 31.3 µM; in [10], greater than 50 µM; in test [11], 25.3 µM; in test [12], greater than 50 µM. Moreover, the TGI is 24.8 µM in [13] and greater than 50 µM in [14].

`Cc1ccc(C(=O)c2[nH]c(NCc3ccccc3)c(C(=S)Nc3ccccc3)c2N)cc1`: the TGI in test [1] is 17.2 µM; in test [2], 33.5 µM; in test [3], 15.2 µM; in test [4], 2.65 µM; in test [5] it was 18.8 µM; in [6], 10.5 µM. Further, the TGI in test [7] stood at 18.2 µM; in test [8], 32.3 µM; in test [9], 20.3 µM; in test [10], 27.5 µM; in [11] it was 28.9 µM; in test [12], 18.7 µM. Moreover, the TGI in test [13] amounted to 5.63 µM; in test [14] it was 26.1 µM.

As for `CC(C)(C)C1CC[C@H](O)[C@H]([C@@H](O)CC2CC(=O)N(c3ccccc3)C(=O)C2)C1` (stereo partly specified), the TGI in test [1] was greater than 100 µM; in test [2], 77.5 µM; in test [3], greater than 100 µM; in test [4], greater than 100 µM; in [5], greater than 100 µM; in test [6] it was greater than 100 µM. The TGI in test [7], in [8], in [9], in test [10], in test [11] and in test [12] was greater than 100 µM in each case. In addition, the TGI in [13] and in test [14] was greater than 100 µM throughout.

Regarding `COC(=O)/C=C1/OC(c2ccccc2)=C(Br)C1=O`, the TGI in test [2] is greater than 100 µM; in [3], greater than 100 µM; in test [4], greater than 100 µM; in test [5], greater than 100 µM; in test [6], 50.6 µM; in test [7], greater than 100 µM. The TGI in test [8] was greater than 100 µM; in [9] it was 53.4 µM; in test [10] it was 51.3 µM; in test [11], greater than 100 µM; in [12] it was 81.6 µM; in test [13], greater than 100 µM. In test [14], this molecule came in with a TGI greater than 100 µM.

With `COC(=O)/C=C1\C(=O)Nc2ccc(Br)cc21`, the TGI in test [1] came to 5.07 µM; in test [2], 3.92 µM; in test [3], 2.64 µM; in test [4] it was 4.58 µM; in test [5], 5.05 µM; in test [6], 3.68 µM. Besides, the TGI in [7] is 5.55 µM; in test [8] it was 4.03 µM; in [9] it was 3.88 µM; in [10], 3.87 µM; in [11], 1.17 µM; in test [12] it was 3.05 µM. In test [14], the TGI amounted to 5.78 µM.

Consider `C1=C(c2ccccc2)NC2=N[C@H]3CCCC[C@@H]3N2C1c1ccccc1` (stereo partly specified), for which the TGI in test [1] was 25.7 µM; in [2], 42.2 µM; in [3], 20.2 µM; in [4], 28.4 µM; in test [5], 25.3 µM; in test [6], 14.8 µM. For the same molecule, the TGI came out at 24.8 µM in [7]; 28.9 µM in test [8]; 24 µM in test [9]; 29.6 µM in test [10]; 43.4 µM in test [11]; 30.7 µM in test [12]. Further, the TGI in test [14] stood at 27.4 µM.

`COc1ccc(-n2c(C)nc3ccc(NC4OCC(OC(C)=O)C(OC(C)=O)C4OC(C)=O)cc3c2=O)cc1` (stereo unspecified): the TGI in test [1], in [2], in test [3], in [4], in [5] and in [6] was greater than 100 µM in each case. Moreover, the TGI in test [7], in [8], in test [9], in test [10], in test [12] and in test [14] was greater than 100 µM in each case.

As to `N=c1oc2ccccc2cc1C(=O)Nc1ccccn1`, the TGI in [2], in [3], in test [4], in [5], in test [6] and in [8] was greater than 100 µM in each case. Also, the TGI in test [9], in [10], in [11], in [12], in [13] and in test [14] was greater than 100 µM each time.

As for `CCOC(=O)CCC(NC(=O)OCc1ccccc1)C(=O)NC(CCC(=O)OCC)C(=O)NC(CCC(=O)OCC)C(=O)NC(CCC(=O)OCC)C(=O)NC(CCC(=O)OCC)C(=O)NC(Cc1ccc([N+](=O)[O-])cc1)C(=O)NC(CCC(=O)OCC)C(=O)NC(CCC(=O)OCC)C(=O)NC(CCC(=O)OCC)C(=O)NC(CCC(=O)OCC)C(=O)NC(CCC(=O)OCC)C(=O)OCC` (stereo unspecified) (Cbz-E(OEt)E(OEt)E(OEt)E(OEt)E(OEt)[Phe(4-NO2)]E(OEt)E(OEt)E(OEt)E(OEt)E(OEt)-OEt; configuration not given here), the TGI in test [2], in test [4], in test [5], in [6], in test [7] and in [8] was greater than 50 µM throughout. In addition, the TGI in [9], in [11], in test [12] and in [13] was greater than 50 µM each time.

Regarding `COc1ccc(C(=O)c2[nH]c(Nc3cc(C)ccn3)c(C(=S)Nc3ccccc3)c2N)cc1`, the TGI in [1] was 49.5 µM; in test [2], 64 µM; in [3], 50.6 µM; in test [4] it was 37.4 µM; in [5], 31.5 µM; in [6] it was 39.4 µM. The TGI is 57.4 µM in test [7]; 47.3 µM in test [8]; 42.5 µM in [9]; greater than 100 µM in test [10]; 49.7 µM in test [12]; 35.8 µM in test [13]. In [14], this molecule displayed a TGI of 52.4 µM.

As to `COc1ccc(-n2c(C)nc3ccc(NC4OC(COC(C)=O)C(OC(C)=O)C(OC(C)=O)C4OC(C)=O)cc3c2=O)cc1` (stereo unspecified), the TGI was greater than 100 µM in [1]; 48.7 µM in test [2]; 46.5 µM in [3]; greater than 100 µM in [4]; greater than 100 µM in test [5]; greater than 100 µM in test [6]. For the same molecule, the TGI is greater than 100 µM in [7]; greater than 100 µM in test [8]; greater than 100 µM in test [9]; 57.3 µM in test [10]; 65.3 µM in test [12]; greater than 100 µM in test [14].

Take `CCC(=O)NC(NNS(=O)(=O)c1ccc(C)cc1)(C(F)(F)F)C(F)(F)F`: the TGI was greater than 100 µM in [1]; greater than 100 µM in [2]; greater than 100 µM in test [3]; greater than 10 µM in test [4]; greater than 100 µM in [5]; greater than 100 µM in test [7]. In addition, the TGI is greater than 100 µM in [8]; 91.8 µM in [9]; greater than 100 µM in test [10]; greater than 100 µM in test [11]; greater than 100 µM in [12]; greater than 100 µM in test [13]. For the same molecule, in test [14], the TGI was greater than 100 µM.

Turning to `CCc1cn(C2CC(CO)C(CO)S2)c(=O)[nH]c1=O` (stereo unspecified), the TGI in test [1], in test [2], in test [3], in test [4], in test [6] and in test [7] was greater than 100 µM throughout. The TGI in test [8], in test [9], in [10], in [11], in test [12] and in [13] was greater than 100 µM each time. Further, in [14], the TGI is greater than 100 µM.

Regarding `C#CCNC(CCCN=C(N)N)C(=O)O` (stereo unspecified), the TGI in test [1], in test [2], in [3], in test [4], in [5] and in [6] was greater than 100 µM each time. Moreover, the TGI in test [7], in test [8], in test [9], in test [10], in test [11] and in [12] was greater than 100 µM throughout. Moreover, in [14], the TGI was greater than 100 µM.

`COC(=O)c1c(C)c2c(c(C)c1O)OC(=O)c1c(C)cc(O)c(C=O)c1O2`: the TGI in test [1], in test [2], in [3], in [4], in [5] and in test [6] was greater than 100 µM each time. Also, the TGI in test [8], in test [9], in [11], in test [12], in test [13] and in [14] was greater than 100 µM in each case.

With `c1ccc(Nc2nnc(-c3ccccc3Nc3ccccc3-c3nnc(Nc4ccccc4)s3)s2)cc1`, the TGI in test [1], in test [2], in test [3], in [4], in test [5] and in test [6] was greater than 100 µM throughout. For the same molecule, the TGI in test [7], in test [8], in test [9], in test [11], in test [12] and in test [13] was greater than 100 µM each time. Besides, in test [14], the TGI is greater than 100 µM.

Consider `CN(C)/C=N/S(=O)(=O)c1nn2c(C=O)c(-c3ccc(-c4ccccc4)cc3)nc2s1`, for which the TGI came to 42.5 µM in [1]; 0.342 µM in test [2]; 2.99 µM in [3]; 11.7 µM in test [4]; 13.7 µM in [5]; 1.49 µM in test [6]. Moreover, the TGI in test [7] worked out at 2.73 µM; in test [8], 32.4 µM; in [9], 3.05 µM; in test [10] it was 2.88 µM; in test [11], 0.647 µM; in test [12] it was 2.99 µM. In test [13], this molecule yielded a TGI of 7.54 µM.

Take `CC(Oc1ccc(Cl)cc1Cl)C(=O)NN1C(=O)CC(=O)NC1=S` (stereo unspecified): the TGI is greater than 100 µM in test [1]; 91.8 µM in [2]; greater than 100 µM in test [3]; greater than 100 µM in [4]; greater than 100 µM in test [5]; greater than 100 µM in test [6]. Moreover, the TGI in test [7], in test [8], in [9], in [10], in test [12] and in test [13] was greater than 100 µM each time. For the same molecule, in [14], the TGI was greater than 100 µM.
